{"source": "patent US20250375365A1", "about": "“MOUTH RESCUE RINSE AND METHODS OF REGULATING BLOOD PRESSURE” (University of Florida Research Foundation, Inc., priority 2024, published 2025)", "origin": "cited, not measured here", "key": {"[1]": {"settings": "CHX rinses, healthy subjects; some studies reported"}, "[2]": {"test_system": "oral microbiome"}}, "data": [{"smiles": "N=C(NCCCCCCNC(=N)NC(=N)Nc1ccc(Cl)cc1)NC(=N)Nc1ccc(Cl)cc1.O=C(O)[C@H](O)[C@@H](O)[C@H](O)[C@H](O)CO.O=C(O)[C@H](O)[C@@H](O)[C@H](O)[C@H](O)CO", "note": "[CHX, chlorhexidine gluconate]", "values": [{"measurement": "blood pressure values versus controls", "setting": "[1]", "value": "higher blood pressure values"}, {"measurement": "reduction of oral microbiome associated with oral nitrate production", "setting": "[2]; one-week CHX course", "value": "significantly impact the reduction of oral microbiome"}, {"measurement": "bacterial species associated with oral inflammation", "setting": "[2]; oral antiseptic mouthwash", "value": "effectively reduced bacterial species"}]}]}
